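96-well plates; 48 h exposure; 5 concentrations. Endpoints by linear interpolation between flanking doses. Not reached: highest tested concentration assigned. At the GI50, growth is halved.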 Calls of active or inactive are those of the source. No stated cut-off is given here; in the data, active = GI50 up to about 1.1 µM and inactive = higher.
Columns and labels:
Experiment in all cases: inhibition of tumour cell growth, NCI panel, 48 h
SNB-19 = test system: SNB-19
HL-60 = test system: HL-60
NCI-H23 = test system: NCI-H23
ACHN = test system: ACHN
COLO 205 = test system: COLO 205
RPMI-8226 = test system: RPMI-8226
IGROV-1 = test system: IGROV-1
SK-MEL-28 = test system: SK-MEL-28
A498 = test system: A498
SNB-75 = test system: SNB-75
U-251 = test system: U-251
Malme-3M = test system: Malme-3M
SF-295 = test system: SF-295
OVCAR-4 = test system: OVCAR-4
MDA-MB-435 = test system: MDA-MB-435
K562 = test system: K562
UO-31 = test system: UO-31
SF-539 = test system: SF-539
HOP-62 = test system: HOP-62
NCI-H522 = test system: NCI-H522
RXF 393 = test system: RXF 393
CCRF-CEM = test system: CCRF-CEM
HT-29 = test system: HT-29
PC-3 = test system: PC-3
KM12 = test system: KM12
NCI-H460 = test system: NCI-H460
HCT-116 = test system: HCT-116
NCI/ADR-RES = test system: NCI/ADR-RES
HCC 2998 = test system: HCC 2998
MOLT-4 = test system: MOLT-4
DU-145 = test system: DU-145
OVCAR-5 = test system: OVCAR-5
SN12C = test system: SN12C
SK-MEL-2 = test system: SK-MEL-2
T47D = test system: T47D
EKVX = test system: EKVX
NCI-H226 = test system: NCI-H226
UACC-62 = test system: UACC-62
SW-620 = test system: SW-620
M14 = test system: M14
HCT-15 = test system: HCT-15
MDA-N = test system: MDA-N
Hs-578T = test system: Hs-578T
MCF7 = test system: MCF7
SF-268 = test system: SF-268
SR = test system: SR
MDA-MB-231 = test system: MDA-MB-231
SK-MEL-5 = test system: SK-MEL-5
SK-OV-3 = test system: SK-OV-3
OVCAR-8 = test system: OVCAR-8
A549 = test system: A549
TK-10 = test system: TK-10
CAKI-1 = test system: CAKI-1
LOX IMVI = test system: LOX IMVI
OVCAR-3 = test system: OVCAR-3
HOP-92 = test system: HOP-92
786-0 = test system: 786-0

Question: Which results are given for `c1ccc(CSC(SCc2ccccc2)c2cccc3ccccc23)cc1`?
Answer: GI50 (SNB-19): > 10 µM (inactive); GI50 (HL-60): > 10 µM (inactive); GI50 (NCI-H23): 3.82 µM (inactive); GI50 (ACHN): > 10 µM (inactive); GI50 (COLO 205): > 10 µM (inactive); GI50 (RPMI-8226): 9.79 µM (inactive); GI50 (IGROV-1): > 10 µM (inactive); GI50 (SK-MEL-28): > 10 µM (inactive); GI50 (A498): > 10 µM (inactive); GI50 (SNB-75): > 10 µM (inactive); GI50 (U-251): > 10 µM (inactive); GI50 (Malme-3M): > 10 µM (inactive); GI50 (SF-295): 8.85 µM (inactive); GI50 (OVCAR-4): > 10 µM (inactive); GI50 (MDA-MB-435): > 10 µM (inactive); GI50 (K562): > 10 µM (inactive); GI50 (UO-31): > 10 µM (inactive); GI50 (SF-539): > 10 µM (inactive); GI50 (HOP-62): > 10 µM (inactive); GI50 (NCI-H522): 7.87 µM (inactive); GI50 (RXF 393): > 10 µM (inactive); GI50 (CCRF-CEM): > 10 µM (inactive); GI50 (HT-29): > 10 µM (inactive); GI50 (PC-3): > 10 µM (inactive); GI50 (KM12): > 10 µM (inactive); GI50 (NCI-H460): > 10 µM (inactive); GI50 (HCT-116): > 10 µM (inactive); GI50 (NCI/ADR-RES): > 10 µM (inactive); GI50 (HCC 2998): > 10 µM (inactive); GI50 (MOLT-4): > 10 µM (inactive); GI50 (DU-145): > 10 µM (inactive); GI50 (OVCAR-5): > 10 µM (inactive); GI50 (SN12C): > 10 µM (inactive); GI50 (SK-MEL-2): > 10 µM (inactive); GI50 (T47D): 9.73 µM (inactive); GI50 (EKVX): > 10 µM (inactive); GI50 (NCI-H226): > 10 µM (inactive); GI50 (UACC-62): > 10 µM (inactive); GI50 (SW-620): > 10 µM (inactive); GI50 (M14): > 10 µM (inactive); GI50 (HCT-15): > 10 µM; GI50 (MDA-N): > 10 µM (inactive); GI50 (Hs-578T): > 10 µM (inactive); GI50 (MCF7): > 10 µM (inactive); GI50 (SF-268): > 10 µM (inactive); GI50 (SR): > 10 µM (inactive); GI50 (MDA-MB-231): > 10 µM (inactive); GI50 (SK-MEL-5): > 10 µM (inactive); GI50 (SK-OV-3): > 10 µM (inactive); GI50 (OVCAR-8): > 10 µM (inactive); GI50 (A549): > 10 µM (inactive); GI50 (TK-10): > 10 µM (inactive); GI50 (CAKI-1): > 10 µM (inactive)

Question: For `CCCCOC(=O)NC(Nc1ccc(S(=O)(=O)Nc2ncccn2)cc1)(C(F)(F)F)C(F)(F)F`, which GI50 (SNB-19) is on record?
Answer: > 100 µM (inactive)

Question: What about the GI50 (HL-60) of the same molecule?
Answer: 89.7 µM (inactive)

Question: What about the GI50 (NCI-H23) of the same molecule?
Answer: > 100 µM (inactive)

Question: And the GI50 (ACHN)?
Answer: > 100 µM (inactive)

Question: What about the GI50 (COLO 205) of the same molecule?
Answer: > 100 µM (inactive)

Question: What about the GI50 (RPMI-8226) of the same molecule?
Answer: 86.9 µM (inactive)

Question: And the GI50 (IGROV-1)?
Answer: > 100 µM (inactive)

Question: And the GI50 (SK-MEL-28)?
Answer: > 100 µM (inactive)

Question: What about the GI50 (A498) of the same molecule?
Answer: > 100 µM (inactive)

Question: And the GI50 (LOX IMVI)?
Answer: > 100 µM (inactive)

Question: What about the GI50 (Malme-3M) of the same molecule?
Answer: > 100 µM (inactive)

Question: What about the GI50 (OVCAR-3) of the same molecule?
Answer: > 100 µM (inactive)

Question: What about the GI50 (SF-295) of the same molecule?
Answer: > 100 µM (inactive)

Question: What about the GI50 (OVCAR-4) of the same molecule?
Answer: > 100 µM (inactive)

Question: What about the GI50 (HOP-92) of the same molecule?
Answer: > 100 µM (inactive)

Question: What about the GI50 (MDA-MB-435) of the same molecule?
Answer: > 100 µM (inactive)

Question: And the GI50 (K562)?
Answer: > 100 µM (inactive)

Question: And the GI50 (UO-31)?
Answer: 21.7 µM (inactive)

Question: What about the GI50 (SF-539) of the same molecule?
Answer: > 100 µM (inactive)

Question: What about the GI50 (HOP-62) of the same molecule?
Answer: > 100 µM (inactive)

Question: And the GI50 (NCI-H522)?
Answer: > 100 µM (inactive)

Question: And the GI50 (RXF 393)?
Answer: > 100 µM (inactive)

Question: And the GI50 (CCRF-CEM)?
Answer: 76 µM (inactive)

Question: And the GI50 (786-0)?
Answer: > 100 µM (inactive)

Question: What about the GI50 (HT-29) of the same molecule?
Answer: > 100 µM (inactive)

Question: And the GI50 (PC-3)?
Answer: > 100 µM (inactive)

Question: And the GI50 (KM12)?
Answer: > 100 µM (inactive)

Question: And the GI50 (NCI-H460)?
Answer: > 100 µM (inactive)

Question: What about the GI50 (HCT-116) of the same molecule?
Answer: > 100 µM (inactive)

Question: And the GI50 (NCI/ADR-RES)?
Answer: > 100 µM (inactive)

Question: What about the GI50 (HCC 2998) of the same molecule?
Answer: 33.5 µM (inactive)

Question: And the GI50 (MOLT-4)?
Answer: > 100 µM (inactive)

Question: And the GI50 (DU-145)?
Answer: > 100 µM (inactive)

Question: And the GI50 (OVCAR-5)?
Answer: > 100 µM (inactive)

Question: What about the GI50 (SN12C) of the same molecule?
Answer: > 100 µM (inactive)

Question: And the GI50 (T47D)?
Answer: 37 µM (inactive)

Question: What about the GI50 (EKVX) of the same molecule?
Answer: > 100 µM (inactive)

Question: And the GI50 (NCI-H226)?
Answer: > 100 µM (inactive)

Question: And the GI50 (UACC-62)?
Answer: > 100 µM (inactive)

Question: And the GI50 (SW-620)?
Answer: > 100 µM (inactive)

Question: What about the GI50 (M14) of the same molecule?
Answer: > 100 µM (inactive)

Question: What about the GI50 (HCT-15) of the same molecule?
Answer: > 100 µM

Question: And the GI50 (MDA-N)?
Answer: > 100 µM (inactive)

Question: And the GI50 (Hs-578T)?
Answer: > 100 µM (inactive)

Question: And the GI50 (SF-268)?
Answer: > 100 µM (inactive)

Question: And the GI50 (SR)?
Answer: 78.2 µM (inactive)

Question: And the GI50 (MDA-MB-231)?
Answer: > 100 µM (inactive)

Question: What about the GI50 (SK-MEL-5) of the same molecule?
Answer: > 100 µM (inactive)

Question: And the GI50 (SK-OV-3)?
Answer: > 100 µM (inactive)

Question: What about the GI50 (OVCAR-8) of the same molecule?
Answer: > 100 µM (inactive)

Question: And the GI50 (A549)?
Answer: > 100 µM (inactive)

Question: And the GI50 (TK-10)?
Answer: > 100 µM (inactive)

Question: And the GI50 (CAKI-1)?
Answer: > 100 µM (inactive)

From ChEMBL document CHEMBL1201862, “PubChem BioAssay data set” (2004)
